According to patent US20240368351A1, “FACTORS CONTROLLING DRUG RELEASE IN CROSS-LINKED POLY(VALEROLACTONE) BASED MATRICES” (Pendant Biosciences, Inc., priority 2019, published 2024):
Converted amounts (≈) assume the structure as drawn.

Key:
[1] = Drug solubility in different release media (PBS with Tween 80 or SDS); type: physicochemical; settings: release media (PBS with Tween 80 or SDS), 37 °C, pH 7.4, aqueous with cosolvent or surfactant or cyclodextrin, thermodynamic from solid
Description: Mikkelsen, L. M., Enzyme solubility in liquid detergent and use of detergent composition. […] Crotts, G.; Park, T. G. Protein delivery from poly(lactic-co-glycolic acid) biodegradable microspheres: Release kinetics and stability issues. […] FDA.
The solutions were centrifuged at 8000 rpm for 10 minutes, and a 1 ml aliquot was withdrawn, filtered through a 0.45 μm nylon membrane, and analyzed by HPLC.

[2] = In vitro drug release from cross-linked matrices (CPs), sample-and-separate, with mathematical modeling (Fick diffusion); type: physicochemical
Description: Evaluation of in vitro drug release: impact of the nature of the drug, polymer and release media: In the in vitro release studies the impact of a number of variables was evaluated including nature of the drug, compatibility between the drug and the polymer matrix, degree of crystallinity of the matrix, M.W. of the copolymer, cross-linking density and the composition of the release media. The commonly used, sample-and-separate method was employed to evaluate drug release from the cross-linked matrices. D'Souza, S. S.; DeLuca, P. P. Methods to Assess in vitro Drug Release from Injectable Polymeric Particulate Systems. Pharmaceutical Research 2006, 23, 3, 460-474.
The Peppas-Sahlin model, where diffusion and polymer relaxation are known to be the underlying drivers of drug release provided the best fit in terms of R^2adjusted (FIGS. 8A and 8C) For cylindrical shaped matrices, Fickian diffusion is considered to be operative when the ratio of diameter to thickness (n or m) of the matrix is equal to or less than 0.45. If the value is […], the drug release mechanism is considered non-Fickian; whereas, if n is 0.89 drug release is considered to be case II transport. Herein, the dimension and the geometry of the matrices evaluated have a value of 0.78<n<0.80. […]
Protocols for drug analysis by HPLC and cytotoxicity evaluation of the cross-linked matrices: The drug release was analyzed by reverse phase HPLC using an Agilent 1200 HPLC system with Agilent ChemStation software, an XDB C18 column (150×4.6 mm i.d+guard column) and UV detection. […] Drug concentrations were quantified using calibration curves using standards that ranged in concentration from 1 to 100 μg/ml (0.9986≤R^2≤1).
The CPs were incubated at 37° C. under constant stirring and at pre-determined time points, a 1 ml aliquout was removed and replaced with 1 mL of fresh media and the samples were immediately frozen at −20° C. for storage prior to HPLC analysis. […] The drug was reconstituted in 1 ml of the HPLC mobile phase and analyzed to correct the DLC and release curves. […]

[3] = Solubility of Drug X in organic solvents and water; type: physicochemical
[4] = cited from earlier work
[5] = Stability of Drug X freebase in PBS with or without SDS by HPLC; type: physicochemical
Excerpt: The appearance of second peak correlates with concentration of the drug.

[6] = PBS with SDS, 120 μg/ml, 2 days
[7] = PBS with SDS, 120 μg/ml, 3 days
[8] = PBS with SDS, 120 μg/ml, 4 days

Compound: CC(C)(C)CC(=O)OCC(=O)[C@@]12OC(C)(C)O[C@@H]1C[C@H]1[C@@H]3CCC4=CC(=O)C=C[C@]4(C)[C@@]3(F)[C@@H](O)C[C@@]12C [Triamcinolone hexacetonide, triamcinolone hexacetonide]
- solubility at 48 h [1]: 37.9 ± 0.4 µg/mL (≈ 71.1 µM)
- cumulative release from the drug-loaded crosslinked copolymer ([2]; after 34 days, embodiment statement): about 42 wt %

Compound: CC(=O)Nc1ccc(O)cc1 [Acetaminophen, acetaminophen]
- period of release ([2]; from all matrices, PBS with 0.5% SDS, 37° C.): less than a week

Compound: CC(C)OC(=O)[C@H](C)N[P@](=O)(CO[C@H](C)Cn1cnc2c(N)ncnc21)Oc1ccccc1.CC(C)OC(=O)[C@H](C)N[P@](=O)(CO[C@H](C)Cn1cnc2c(N)ncnc21)Oc1ccccc1.O=C(O)/C=C/C(=O)O [Drug X fumarate]
- Solubility in EtOH/DMSO (50/50) ([3]; 5 mg per 100 mL or μL): Soluble, and
- Solubility in DMSO/Water (50/50) ([3]; 5 mg per 200 mL or μL): Insoluble
- Solubility in Water ([3]; 5 mg per 200 mL or μL): Insoluble

Compound: CC1(C)S[C@@H]2[C@H](NC(=O)Cc3ccccc3)C(=O)N2[C@H]1C(=O)O [Penicillin G, reference compound]
- Log P [4]: 1.83
- Water solubility [4]: water (0.21 mg/mL)
- Water solubility (words) [4]: Slightly soluble in
- pKa [4]: 3.96

Compound: CC(C)OC(=O)[C@H](C)N[P@](=O)(CO[C@H](C)Cn1cnc2c(N)ncnc21)Oc1ccccc1 [Drug X freebase]
- Solubility EtOH ([3]; 5 mg/100 μl, cell wraps: 'Soluble, and' / 'transparent'): Soluble, and
- area of the HPLC peak corresponding to Drug X freebase as a function of time ([5]; PBS with 0.5% SDS): constantly decreased as a function of time
- Area (Drug X freebase peak) ([5]; PBS with SDS, 12 μg/ml, 1 hr): 191.5
- Area (Drug X freebase peak) ([5]; PBS with SDS, 12 μg/ml, 3 hrs): 185.7
- Area (Drug X freebase peak) ([5]; PBS with SDS, 12 μg/ml, 7 hrs): 182.8
- Area (Drug X freebase peak) ([5]; PBS with SDS, 12 μg/ml, 1 day): 179.2
- Area (Drug X freebase peak) ([5]; PBS with SDS, 12 μg/ml, 2 days): 178.7
- Area (Drug X freebase peak) ([5]; PBS with SDS, 12 μg/ml, 3 days): 155.2
- Area (Drug X freebase peak) ([5]; PBS with SDS, 12 μg/ml, 4 days): 155.8
- Area (Drug X freebase peak) ([5]; PBS with SDS, 12 μg/ml, T = 0): 192.6
- Area (2nd) second peak ([5]; PBS with SDS, 60 μg/ml, 1 hr): (99.6)
- Area (Drug X freebase peak) ([5]; PBS with SDS, 60 μg/ml, 1 hr): 934.7
- Area (2nd) second peak ([5]; PBS with SDS, 60 μg/ml, 3 hrs): (85.18)
- Area (Drug X freebase peak) ([5]; PBS with SDS, 60 μg/ml, 3 hrs): 909.05
- Area (2nd) second peak ([5]; PBS with SDS, 60 μg/ml, 7 hrs): (95.5)
- Area (Drug X freebase peak) ([5]; PBS with SDS, 60 μg/ml, 7 hrs): 906.7
- Area (2nd) second peak ([5]; PBS with SDS, 60 μg/ml, 1 day): (87.6)
- Area (Drug X freebase peak) ([5]; PBS with SDS, 60 μg/ml, 1 day): 867.8
- Area (2nd) second peak ([5]; PBS with SDS, 60 μg/ml, 2 days): (77.0)
- Area (Drug X freebase peak) ([5]; PBS with SDS, 60 μg/ml, 2 days): 783.7
- Area (2nd) second peak ([5]; PBS with SDS, 60 μg/ml, 3 days): (72.3)
- Area (Drug X freebase peak) ([5]; PBS with SDS, 60 μg/ml, 3 days): 712.2
- Area (2nd) second peak ([5]; PBS with SDS, 60 μg/ml, 4 days): (68.1)
- Area (Drug X freebase peak) ([5]; PBS with SDS, 60 μg/ml, 4 days): 677.3
- Area (2nd) second peak ([5]; PBS with SDS, 60 μg/ml, T = 0): (73.9)
- Area (Drug X freebase peak) ([5]; PBS with SDS, 60 μg/ml, T = 0): 929.6
- Area (2nd) second peak ([5]; PBS with SDS, 120 μg/ml, 1 hr): (223.0)
- Area (Drug X freebase peak) ([5]; PBS with SDS, 120 μg/ml, 1 hr): 1768.4
- Area (2nd) second peak ([5]; PBS with SDS, 120 μg/ml, 3 hrs): (219.47)
- Area (Drug X freebase peak) ([5]; PBS with SDS, 120 μg/ml, 3 hrs): 1764.9
- Area (2nd) second peak ([5]; PBS with SDS, 120 μg/ml, 7 hrs): (212.8)
- Area (Drug X freebase peak) ([5]; PBS with SDS, 120 μg/ml, 7 hrs): 1707.5
- Area (2nd) second peak ([5]; PBS with SDS, 120 μg/ml, 1 day): (189.8)
- Area (Drug X freebase peak) ([5]; PBS with SDS, 120 μg/ml, 1 day): 1613.5
- Area (2nd) second peak [5, 6]: (193.9)
- Area (Drug X freebase peak) [5, 6]: 1539.2
- Area (2nd) second peak [5, 7]: (167.5)
- Area (Drug X freebase peak) [5, 7]: 1401.2
- Area (2nd) second peak [5, 8]: (160.3)
- Area (Drug X freebase peak) [5, 8]: 1318.3
- Area (2nd) second peak ([5]; PBS with SDS, 120 μg/ml, T = 0): (218.0)
- Area (Drug X freebase peak) ([5]; PBS with SDS, 120 μg/ml, T = 0): 1849.3
- HPLC peak corresponding to Drug X free base as a function of time ([5]; PBS without SDS, regardless of concentration): constantly decreasing as a function of time
- Area (Drug X freebase peak) ([5]; Table 47, PBS with SDS, 12 μg/ml, 1 hr): 164.51
- Area (Drug X freebase peak) ([5]; Table 47, PBS with SDS, 12 μg/ml, 3 hrs): 162.2
- Area (Drug X freebase peak) ([5]; Table 47, PBS with SDS, 12 μg/ml, 7 hrs): 161.0
- Area (Drug X freebase peak) ([5]; Table 47, PBS with SDS, 12 μg/ml, 1 day): 132.2
- Area (Drug X freebase peak) ([5]; Table 47, PBS with SDS, 12 μg/ml, 2 days): 103.6
- Area (Drug X freebase peak) ([5]; Table 47, PBS with SDS, 12 μg/ml, 3 days): 84.2
- Area (Drug X freebase peak) ([5]; Table 47, PBS with SDS, 12 μg/ml, 4 days): 57.5
- Area (Drug X freebase peak) ([5]; Table 47, PBS with SDS, 12 μg/ml, T = 0): 169.2
- Area (Drug X freebase peak) ([5]; Table 47, PBS with SDS, 60 μg/ml, 1 hr): 897.8
- Area (Drug X freebase peak) ([5]; Table 47, PBS with SDS, 60 μg/ml, 3 hrs): 875.2
- Area (Drug X freebase peak) ([5]; Table 47, PBS with SDS, 60 μg/ml, 7 hrs): 850.6
- Area (Drug X freebase peak) ([5]; Table 47, PBS with SDS, 60 μg/ml, 1 day): 663.9
- Area (Drug X freebase peak) ([5]; Table 47, PBS with SDS, 60 μg/ml, 2 days): 511.8
- Area (Drug X freebase peak) ([5]; Table 47, PBS with SDS, 60 μg/ml, 3 days): 361.7
- Area (Drug X freebase peak) ([5]; Table 47, PBS with SDS, 60 μg/ml, 4 days): 303.9
- Area (Drug X freebase peak) ([5]; Table 47, PBS with SDS, 60 μg/ml, T = 0): 903.4
- Area (Drug X freebase peak) ([5]; Table 47, PBS with SDS, 120 μg/ml, 1 hr): 1797.8
- Area (Drug X freebase peak) ([5]; Table 47, PBS with SDS, 120 μg/ml, 3 hrs): 1790.0
- Area (Drug X freebase peak) ([5]; Table 47, PBS with SDS, 120 μg/ml, 7 hrs): 1687.7
- Area (Drug X freebase peak) ([5]; Table 47, PBS with SDS, 120 μg/ml, 1 day): 1319.2
- Area (Drug X freebase peak) ([5]; Table 47, PBS with SDS, 120 μg/ml, 2 days): 1023.1
- Area (Drug X freebase peak) ([5]; Table 47, PBS with SDS, 120 μg/ml, 3 days): 722.9
- Area (Drug X freebase peak) ([5]; Table 47, PBS with SDS, 120 μg/ml, 4 days): 593.4
- Area (Drug X freebase peak) ([5]; Table 47, PBS with SDS, 120 μg/ml, T = 0): 1841.8
